Measurements as given in PubChem BioAssay AID192 (DTP/NCI, 2004).
Toxic doses and inconclusive results are not listed.

Test system: BDF1 mice, B16 melanoma ip, median survival T/C
Assay: NCI In Vivo Anticancer Drug Screen. Data for tumor model B16 Melanoma (intraperitoneal) in B6D2F1 (BDF1) mice
Settings: endpoint: median survival time, higher = longer survival
Outline: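 The ratio T/C compares compound-treated mice with vehicle-treated controls, using survival or tumor size as the endpoint in a transplantable tumor model.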

[1] = dose: 25.0 mg/kg/injection, schedule: Q01DX009 (ip), vehicle: Klucel (hydroxypropylcellulose) (HPC)
[2] = dose: 50.0 mg/kg/injection, schedule: Q01DX009 (ip), vehicle: Klucel (hydroxypropylcellulose) (HPC)
[3] = dose: 100.0 mg/kg/injection, schedule: Q01DX009 (ip), vehicle: Klucel (hydroxypropylcellulose) (HPC)
[4] = dose: 200.0 mg/kg/injection, schedule: Q01DX009 (ip), vehicle: Klucel (hydroxypropylcellulose) (HPC)
[5] = dose: 400.0 mg/kg/injection, schedule: Q01DX009 (ip), vehicle: Klucel (hydroxypropylcellulose) (HPC)
[6] = dose: 50.0 mg/kg/injection, schedule: Q01DX009 (ip), vehicle: saline with Tween-80
[7] = dose: 100.0 mg/kg/injection, schedule: Q01DX009 (ip), vehicle: saline with Tween-80
[8] = dose: 200.0 mg/kg/injection, schedule: Q01DX009 (ip), vehicle: saline with Tween-80
[9] = dose: 100.0 mg/kg/injection, schedule: Q04DX003 (ip), vehicle: Klucel (hydroxypropylcellulose) (HPC)
[10] = dose: 200.0 mg/kg/injection, schedule: Q04DX003 (ip), vehicle: Klucel (hydroxypropylcellulose) (HPC)
[11] = dose: 400.0 mg/kg/injection, schedule: Q04DX003 (ip), vehicle: Klucel (hydroxypropylcellulose) (HPC)

For `COc1ccc2[nH]c3ccc4cc[n+](CCN5CCC(C6CCN(CC[n+]7ccc8ccc9[nH]c%10ccc(OC)cc%10c9c8c7)CC6)CC5)cc4c3c2c1`, the T/C (dose: 12.5 mg/kg/injection, schedule: Q01DX009 (ip), vehicle: Klucel (hydroxypropylcellulose) (HPC)) was 150 % of control, the T/C [1] was 194 % of control and the T/C [2] was 180 % of control. For the same molecule, the T/C [3] was 100 % of control.
In the case of `CNNCc1ccc(/C=N/NC(N)=S)cc1`, the T/C (dose: 12.5 mg/kg/injection, schedule: Q01DX009 (ip), vehicle: water) is reported as 105 % of control, the T/C (dose: 25.0 mg/kg/injection, schedule: Q01DX009 (ip), vehicle: water) is reported as 100 % of control and the T/C (dose: 50.0 mg/kg/injection, schedule: Q01DX009 (ip), vehicle: water) is reported as 99 % of control. The T/C (dose: 100.0 mg/kg/injection, schedule: Q01DX009 (ip), vehicle: water) was 97 % of control.
`COc1ccc(NC(=O)Nc2ccc(C(C)C)cc2)cc1` was tested, and the T/C [3] was 94 % of control, the T/C [4] was 94 % of control and the T/C [5] was 97 % of control.
`CC(NC(=O)c1ccccc1)C(=O)NC(CSC(c1ccccc1)c1ccccc1)C(=O)O` (stereo not given) was tested, and the T/C (dose: 12.5 mg/kg/injection, schedule: Q04DX003 (ip), vehicle: saline) was 107 % of control, the T/C (dose: 25.0 mg/kg/injection, schedule: Q04DX003 (ip), vehicle: saline) was 110 % of control and the T/C (dose: 50.0 mg/kg/injection, schedule: Q04DX003 (ip), vehicle: saline) was 89 % of control.
For `CC(C)(C)OC(=O)n1cnc(CC(NC(=O)OCc2ccccc2)C(=O)O)c1` (stereo not given), the T/C [6] was 98 % of control, the T/C [7] was 89 % of control and the T/C [8] was 92 % of control.
In the case of `Cc1cc(OC(=O)Nc2ccccc2Cl)ccc1[N+](=O)[O-]`, the T/C [9] is reported as 96 % of control, the T/C [10] is reported as 96 % of control and the T/C [11] is reported as 93 % of control.
`NC(=O)CNC1=C(N2CC2)C(=O)C(NCC(N)=O)=C(N2CC2)C1=O` was tested, and the T/C (dose: 0.5 mg/kg/injection, schedule: Q01DX009 (ip), vehicle: saline) was 96 % of control, the T/C (dose: 1.0 mg/kg/injection, schedule: Q01DX009 (ip), vehicle: saline) was 115 % of control and the T/C (dose: 4.0 mg/kg/injection, schedule: Q01DX009 (ip), vehicle: saline) was 124 % of control.
With `O=C1CC(c2ccc(O)cc2)CC(=O)C1C(C1CC=CCC1)N(CCCl)CCCl` (stereo not given) the T/C [1] was 88 % of control, the T/C [2] was 95 % of control and the T/C [3] was 90 % of control. For the same molecule, the T/C [4] was 92 % of control and the T/C [5] was 97 % of control.
For `CCC(C)(CC)OC(N)=O`, the T/C (dose: 25.0 mg/kg/injection, schedule: Q01DX009 (ip), vehicle: saline with Tween-80) was 112 % of control, the T/C (dose: 25.0 mg/kg/injection, schedule: Q01DX009 (ip), vehicle: saline) was 95 % of control and the T/C [6] was 112 % of control. For the same molecule, the T/C (dose: 50.0 mg/kg/injection, schedule: Q01DX009 (ip), vehicle: saline) was 95 % of control, the T/C [7] was 105 % of control and the T/C (dose: 100.0 mg/kg/injection, schedule: Q01DX009 (ip), vehicle: saline) was 100 % of control. For the same molecule, the T/C [8] was 104 % of control and the T/C (dose: 200.0 mg/kg/injection, schedule: Q01DX009 (ip), vehicle: saline) was 95 % of control.
In the case of `Cc1cc(NS(=O)(=O)c2ccc(N)cc2)no1`, the T/C [9] is reported as 97 % of control, the T/C [10] is reported as 97 % of control and the T/C [11] is reported as 93 % of control.
In the case of `FC(F)(F)c1ccc2c(c1)N(CCCN1CCN(CCOc3ccccc3)CC1)c1ccccc1S2`, the T/C (dose: 2.0 mg/kg/injection, schedule: Q01DX009 (ip), vehicle: saline) is reported as 121 % of control.
